Measurements published in patent US20060019329A1, “Method of screening for protein inhibitors and activators” (priority 1988, published 2006).

Tests used:
[1] = tested on: cell lines overproducing PKC; test: Growth in agar of cell lines overproducing PKC (further screening of activators and inhibitors); format: cell-based, rat; conditions: PKC-overproducing cell lines; known activators or inhibitor of PKC
Experimental: Cells were seeded at a density of 10^4/plate in a series of 60 mm plates, in 5 ml DMEM plus 10% CS. Twenty-four hours later, cells in triplicate plates were trypsinized and counted. This point was designated “day 0.” The remaining cultures were then grown in the respective medium (i.e. plus or minus 100 ng/ml TPA) with fresh medium changes twice per week. Cell counts per plate were then determined on triplicate plates during the remainder of the growth curve (FIG. 3). The results obtained were analyzed for exponential doubling time and saturation density (Table 2). To assess growth in soft agar (anchorage independence), 2×10^4 cells were suspended in 2 ml of 0.3% Bacto agar (Difco Laboratories, Detroit, Mich.) in DMEM containing 20% fetal calf serum (FCS) and overlayed above a layer of 5 ml of 0.5% agar in the same medium, on 60 mm petri dishes. The cells were then overlaid with DMEM plus 20% FCS every 4 days. At the end of 30 days, colonies were stained with the vital stain 2-(p-iodophenyl)-3-(p-nitrophenyl)-5-phenyltetrazolinium chloride hydrate (INT) (Sigma Chemical Co., St. Louis, Mo.) for 48 hours at 37° C., in an incubator with 5% CO2 (Schaeffer and Friend, 1976), and the number of colonies counted under low power on an inverted phase microscope. The data are expressed as “cloning efficiency”, i.e. number of colonies greater than 0.05 mm per plate X 100 divided by the number of cells originally seeded per plate.
Additional compounds tested included the tumor promoters teleocidin, aplysiatoxin, and mezerein, all of which are known activators of PKC (O'Brian, et al., CSH, 1985).
Inhibition of the growth of the R6-PKC3 cells in agar in the presence of tamoxifen provided critical evidence that tamoxifen could inhibit PKC-mediated stimulation of cellular growth.

[2] = tested on: CHO/NEO control cells; test: Morphologic and growth control effects of insulin on CHO/NEO control cells; format: cell-based, Chinese Hamster; conditions: 400 nM insulin, 48 hours after treatment
Description: (§1) These cell lines were generated using approaches analogous to those previously described for the PKC-overproducing cell lines. However, in these HIR studies we utilized a different expression vector, distinct cell lines, and an alternative method of gene transfer (direct transfection as opposed to virus-mediated transduction as used in the PKC experiments previously described). Briefly, CHO cells were co-transfected with the transfer vector pSVEneo (containing the neomycin resistance gene) and the expression vector pCVSVHIRc as previously described (White et al., 1988). After twenty four hours, the transfected cells were placed into 800 ug/ml G418 to select resistant cells. Approximately two weeks later, G418-resistant clones were isolated and subcloned. Clonal cell lines which express high levels of surface insulin receptors were selected by fluorescence-activated cell sorting. One such line (CHO/HIRC), which stably overproduced approximately 80,000 insulin receptors per CHO cell, was utilized in these experiments. A control CHO cell line (CHO/NEO), harboring only the pSVEneo transfer vector, were generated in analogous fashion. Detailed preliminary characterizations of this cell line have been described (White et al., 1988).
We then tested the ability of the CHO/HIRC and CHO/NEO cells to respond to the following insulin treatment protocol. […]

[3] = tested on: CHO/HIRC cells overproducing the human insulin receptor; test: Morphologic and growth control effects of insulin on CHO/HIRC test cells; format: cell-based, Chinese Hamster; conditions: 400 nM insulin
Description: as §1
We then tested the ability of the CHO/HIRC and CHO/NEO cells to respond to the following insulin treatment protocol. Control cells, hereinafter termed CHO/NEO (which harbor pSVEneo alone), and the Test cells, termed CHO/HIRC (which stably overproduced about 80,000 insulin receptors per cell), were incubated in the presence and absence of insulin. Control (CHO/NEO) and Test (CHO/HIRC) cell lines were exposed to 400 nM of insulin and the resultant morphologic changes were observed and photographed using a Bausch and Lomb BL-200 phase-contrast microscope with a Nikon FM-200 camera attached.

Compound | modulation of the growth of the cells [1] | adherence to the culture plate [2] | morphologic changes ([3]; 24 hours after exposure) | adherence to the culture plate ([3]; 48 hours after treatment) | morphologic changes ([3]; after 18 hours)
CO[C@@H](CC[C@H](C)[C@H]1O[C@@]23C[C@H](OC(=O)C[C@H]([C@@H](C)O)OC(=O)C[C@](O)(O2)[C@H](C)CC3(C)C)[C@@H]1C)c1cc(O)ccc1Br [aplysiatoxin] | modulated the growth of the cells in the expected manner |  |  |  | 
C=C(C)[C@@]12O[C@@]3(c4ccccc4)O[C@@H]1[C@@H]1[C@@H]4O[C@]4(CO)[C@@H](O)[C@]4(O)C(=O)C(C)=C[C@H]4[C@@]1(O3)[C@H](C)[C@H]2OC(=O)/C=C/C=C/c1ccccc1 [mezerein] | modulated the growth of the cells in the expected manner |  |  |  | 
insulin |  | still largely intact | further pronounced | virtually all of the test cells had completely detached from the plate | profound morphologic changes
teleocidin | modulated the growth of the cells in the expected manner |  |  |  | 
